{"source": "patent US20260130933A1", "about": "“PHARMACEUTICAL COMPOSITION FOR PREVENTION OR TREATMENT OF NEPHROPATHY AND/OR DIABETES MELLITUS, COMPRISING ENAVOGLIFLOZIN” (DAEWOONG PHARMACEUTICAL CO., LTD., priority 2022, published 2026)", "test": "Example 2: phase 3 trial, enavogliflozin 0.3 mg vs dapagliflozin 10 mg once a day for 24 weeks added to metformin in patients with type 2 diabetes (same efficacy, exploratory and safety endpoints)", "assay_type": "in vivo, human", "experimental": "Subjects who met the inclusion/exclusion criteria were administered a placebo of the clinical trial drug under single-blind (subject blinding) conditions during a 2-week run-in period while continuing to receive metformin. […] The randomized subjects were administered two tablets of the clinical trial drug for each administration group once a day, and then visited the institution at weeks 6, 12, 18, and 24 during the 24-week administration period to conduct efficacy and safety evaluations.\n• 1. Change in HbA1c at week 24 after administration of clinical trial drug compared to Visit 2 (randomization)\n• 1. Change in HbA1c at each time point of weeks 6, 12, and 18 after administration of clinical trial drug compared to Visit 2 (randomization) • 2. Change in FPG at each time point of weeks 6, 12, 18, and 24 after administration of clinical trial drug compared to Visit 2 (randomization) • 3. Proportion of subjects achieving HbA1c<7% at each time point of weeks 6, 12, 18, and 24 after administration of clinical trial drug • 4. Proportion of subjects achieving HbA1c<6.5% at each time point of weeks 6, 12, 18, and 24 after administration of clinical trial drug • 5. Proportion of subjects achieving therapeutic response (HbA1c change (HbA1c at Visit 2-HbA1c at each evaluation time point)>0.5% or HbA1c<7% at each evaluation time point compared to Visit 2 (randomization)) at each time point of weeks 6, 12, 18 and 24 after administration of clinical trial drug\n• 1. Change in fasting c-peptide at each time point of weeks 6, 12, 18, and 24 after administration of clinical trial drug compared to Visit 2 (randomization) • 2. Change in body weight at each time point of weeks 6, 12, 18, and 24 after administration of clinical trial drug compared to Visit 2 (randomization) • 3. Change in fasting lipid concentration (total cholesterol, LDL-C, HDL-C, and triglycerides) at each time point of weeks 6, 12, 18, and 24 after administration of clinical trial drug compared to Visit 2 (randomization) • 4. Changes in systolic or diastolic blood pressure at each time point of weeks 6, 12, 18, and 24 after administration of clinical trial drug compared to Visit 2 (randomization) • 5. Changes in β-cell function and insulin resistance measured by HOMA-β and HOMA-IR at each time point of weeks 6, 12, 18, and 24 after administration of clinical trial drug compared to Visit 2 (randomization) • 6. Changes in renal function-related indicators (UACR, UGCR) measured by UACR at each time point of weeks 6, 12, 18, and 24 after administration of clinical trial drug compared to Visit 2 (randomization) • 7. Changes in obesity-related indicators (adiponectin, leptin) at each time point of weeks 6, 12, 18, and 24 after administration of clinical trial drug compared to Visit 2 (randomization)", "key": {"[1]": {"details": "Week 18, mPPS1, enavogliflozin minus dapagliflozin"}, "[2]": {"details": "Week 18, mPPS2, enavogliflozin minus dapagliflozin"}, "[3]": {"details": "Week 24, PPS, enavogliflozin minus dapagliflozin"}}, "data": [{"compound": "OC[C@H]1O[C@@H](c2cc(Cc3ccc(C4CC4)cc3)c(Cl)c3c2CCO3)[C@H](O)[C@@H](O)[C@@H]1O", "note": "[Enavogliflozin, (2S,3R,4R,5S,6R)-2-(7-chloro-6 (4-cyclopropylbenzyl)-2,3-dihydrobenzofuran-4-yl)-6-(hydroxymethyl)tetrahydro-2H-pyran-3,4,5-triol]", "values": [{"measurement": "LDL-C, Mean (SD)", "setting": "Week 18, mPPS1", "value": "85.75(29.78) mg/dL"}, {"measurement": "LDL-C, Median", "setting": "Week 18, mPPS1", "value": 77.50, "unit": "mg/dL"}, {"measurement": "Triglycerides change from baseline, ANCOVA LS mean (SE)", "setting": "Week 18, mPPS1", "value": "−4.99(5.99) mg/dL"}, {"measurement": "Triglycerides change from baseline, Mean (SD)", "setting": "Week 18, mPPS1", "value": "−2.70(78.86) mg/dL"}, {"measurement": "Triglycerides change from baseline, Median", "setting": "Week 18, mPPS1", "value": -2.50, "unit": "mg/dL"}, {"measurement": "Triglycerides, Mean (SD)", "setting": "Week 18, mPPS1", "value": "118.10(55.93) mg/dL"}, {"measurement": "Triglycerides, Median", "setting": "Week 18, mPPS1", "value": 108.00, "unit": "mg/dL"}, {"measurement": "HDL-C change from baseline, LS mean difference", "setting": "[1]", "value": -0.62, "unit": "mg/dL"}, {"measurement": "LDL-C change from baseline, LS mean difference", "setting": "[1]", "value": -1.15, "unit": "mg/dL"}, {"measurement": "triglycerides change from baseline, LS mean difference", "setting": "[1]", "value": -6.87, "unit": "mg/dL"}, {"measurement": "Diastolic blood pressure change from baseline, ANCOVA LS mean (SE)", "setting": "Week 18, mPPS2", "value": "−4.80", "unit": "mmHg"}, {"measurement": "Diastolic blood pressure change from baseline, Mean (SD)", "setting": "Week 18, mPPS2", "value": "−5.05", "unit": "mmHg"}, {"measurement": "Diastolic blood pressure change from baseline, Median", "setting": "Week 18, mPPS2", "value": "−5.00", "unit": "mmHg"}, {"measurement": "Diastolic blood pressure, Mean (SD)", "setting": "Week 18, mPPS2", "value": 71.85, "unit": "mmHg"}, {"measurement": "Diastolic blood pressure, Median", "setting": "Week 18, mPPS2", "value": 71.00, "unit": "mmHg"}, {"measurement": "Systolic blood pressure change from baseline, ANCOVA LS mean (SE)", "setting": "Week 18, mPPS2", "value": "−6.69(1.12) mmHg"}, {"measurement": "Systolic blood pressure change from baseline, Mean (SD)", "setting": "Week 18, mPPS2", "value": "−7.04(10.51) mmHg"}, {"measurement": "Systolic blood pressure change from baseline, Median", "setting": "Week 18, mPPS2", "value": "−9.00", "unit": "mmHg"}, {"measurement": "Systolic blood pressure, Mean (SD)", "setting": "Week 18, mPPS2", "value": "122.70(12.89) mmHg"}, {"measurement": "Systolic blood pressure, Median", "setting": "Week 18, mPPS2", "value": 122.00, "unit": "mmHg"}, {"measurement": "diastolic blood pressure change from baseline, LS mean difference", "setting": "[2]", "value": "−0.70", "unit": "mmHg"}, {"measurement": "systolic blood pressure change from baseline, LS mean difference", "setting": "[2]", "value": "−0.72", "unit": "mmHg"}, {"measurement": "Adiponectin change from baseline, ANCOVA LS mean (SE)", "setting": "Week 24, PPS", "value": 1.67, "unit": "µg/mL"}, {"measurement": "Adiponectin change from baseline, Mean (SD)", "setting": "Week 24, PPS", "value": 1.72, "unit": "µg/mL"}, {"measurement": "Adiponectin change from baseline, Median", "setting": "Week 24, PPS", "value": 1.21, "unit": "µg/mL"}, {"measurement": "Adiponectin, Mean (SD)", "setting": "Week 24, PPS", "value": 8.68, "unit": "µg/mL"}, {"measurement": "Adiponectin, Median", "setting": "Week 24, PPS", "value": 7.64, "unit": "µg/mL"}, {"measurement": "HOMA-IR change from baseline, ANCOVA LS mean (SE)", "setting": "Week 24, PPS", "value": "−1.85"}, {"measurement": "HOMA-IR change from baseline, Mean (SD)", "setting": "Week 24, PPS", "value": "−1.69"}, {"measurement": "HOMA-IR change from baseline, Median", "setting": "Week 24, PPS", "value": "−1.06"}, {"measurement": "HOMA-IR, Mean (SD)", "setting": "Week 24, PPS", "value": 1.76}, {"measurement": "HOMA-IR, Median", "setting": "Week 24, PPS", "value": 1.48}, {"measurement": "HOMA-β change from baseline, ANCOVA LS mean (SE)", "setting": "Week 24, PPS", "value": 6.94}, {"measurement": "HOMA-β change from baseline, Mean (SD)", "setting": "Week 24, PPS", "value": 6.80}, {"measurement": "HOMA-β change from baseline, Median", "setting": "Week 24, PPS", "value": 4.00}, {"measurement": "HOMA-β, Mean (SD)", "setting": "Week 24, PPS", "value": 52.32}, {"measurement": "HOMA-β, Median", "setting": "Week 24, PPS", "value": 42.00}, {"measurement": "Leptin change from baseline, ANCOVA LS mean (SE)", "setting": "Week 24, PPS", "value": -2.40, "unit": "ng/mL"}, {"measurement": "Leptin change from baseline, Mean (SD)", "setting": "Week 24, PPS", "value": -2.53, "unit": "ng/mL"}, {"measurement": "Leptin change from baseline, Median", "setting": "Week 24, PPS", "value": -1.77, "unit": "ng/mL"}, {"measurement": "Leptin, Mean (SD)", "setting": "Week 24, PPS", "value": 9.68, "unit": "ng/mL"}, {"measurement": "Leptin, Median", "setting": "Week 24, PPS", "value": 7.45, "unit": "ng/mL"}, {"measurement": "UACR change from baseline, ANCOVA LS mean (SE)", "setting": "Week 24, PPS", "value": -24.29, "unit": "g/kg"}, {"measurement": "UACR change from baseline, Mean (SD)", "setting": "Week 24, PPS", "value": -18270, "unit": "mg/kg"}, {"measurement": "UACR change from baseline, Median", "setting": "Week 24, PPS", "value": -1.10, "unit": "g/kg"}, {"measurement": "UACR, Mean (SD)", "setting": "Week 24, PPS", "value": 19930, "unit": "mg/kg"}, {"measurement": "UACR, Median", "setting": "Week 24, PPS", "value": 10.20, "unit": "g/kg"}, {"measurement": "UGCR change from baseline, ANCOVA LS mean (SE)", "setting": "Week 24, PPS", "value": 60.48, "unit": "mg/mg"}, {"measurement": "UGCR change from baseline, Mean (SD)", "setting": "Week 24, PPS", "value": 58.90, "unit": "mg/mg"}, {"measurement": "UGCR change from baseline, Median", "setting": "Week 24, PPS", "value": 56.43, "unit": "mg/mg"}, {"measurement": "UGCR, Mean (SD)", "setting": "Week 24, PPS", "value": 60.43, "unit": "mg/mg"}, {"measurement": "UGCR, Median", "setting": "Week 24, PPS", "value": 57.88, "unit": "mg/mg"}, {"measurement": "HOMA-IR change from baseline, LS mean difference", "setting": "[3]", "value": "−0.53"}, {"measurement": "HOMA-β change from baseline, LS mean difference", "setting": "[3]", "value": "−4.99"}, {"measurement": "UACR change from baseline, LS mean difference", "setting": "[3]", "value": -6.93, "unit": "g/kg"}, {"measurement": "UGCR change from baseline, LS mean difference", "setting": "[3]", "value": 15.54, "unit": "mg/mg"}, {"measurement": "leptin change from baseline, LS mean difference", "setting": "[3]", "value": -1.12, "unit": "ng/mL"}, {"measurement": "HDL-C change from baseline, ANCOVA LS mean (SE)", "setting": "Week 24, mPPS1", "value": "3.06(0.64) mg/dL"}, {"measurement": "HDL-C change from baseline, Mean (SD)", "setting": "Week 24, mPPS1", "value": "2.75(6.70) mg/dL"}, {"measurement": "HDL-C change from baseline, Median", "setting": "Week 24, mPPS1", "value": 3.00, "unit": "mg/dL"}, {"measurement": "HDL-C, Mean (SD)", "setting": "Week 24, mPPS1", "value": "53.69(10.72) mg/dL"}, {"measurement": "HDL-C, Median", "setting": "Week 24, mPPS1", "value": 53.00, "unit": "mg/dL"}, {"measurement": "LDL-C change from baseline, ANCOVA LS mean (SE)", "setting": "Week 24, mPPS1", "value": "1.64(1.92) mg/dL"}, {"measurement": "LDL-C change from baseline, Mean (SD)", "setting": "Week 24, mPPS1", "value": "0.88(17.04) mg/dL"}, {"measurement": "LDL-C change from baseline, Median", "setting": "Week 24, mPPS1", "value": 3.00, "unit": "mg/dL"}, {"measurement": "LDL-C, Mean (SD)", "setting": "Week 24, mPPS1", "value": "87.40(29.52) mg/dL"}, {"measurement": "LDL-C, Median", "setting": "Week 24, mPPS1", "value": 84.00, "unit": "mg/dL"}, {"measurement": "Triglycerides change from baseline, ANCOVA LS mean (SE)", "setting": "Week 24, mPPS1", "value": "−5.07(5.14) mg/dL"}, {"measurement": "Triglycerides change from baseline, Mean (SD)", "setting": "Week 24, mPPS1", "value": "−2.47(76.88) mg/dL"}, {"measurement": "Triglycerides change from baseline, Median", "setting": "Week 24, mPPS1", "value": 0.00, "unit": "mg/dL"}]}]}
